Assay results as given in patent US10689331B2, “IDO inhibitors” (Bristol-Myers Squibb Company, priority 2015, dated 2020).
Where a name gives a salt, the structure may show the parent alone.

Biological target: T1, human IDO1 (Homo sapiens, UniProt P14902)
T1 construct: expressed in transfected cells
Test: HEK Human IDO-1 inhibition assay (kynurenine readout, Ehrlich reagent, absorbance 490 nm)
Type: cell-based
Conditions: human IDO1/HEK293 cells, incubated 20 hours with compound; 500 nM reference standard = 100% inhibition
Procedure, shortened: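 HEK293 cells stably expressing human IDO1, treated with compound for 20 h at 37 °C in phenol red-free RPMI/10% FBS. Kynurenine detected after TCA (0.2% final, 50 °C, 30 min) by Ehrlich reagent absorbance at 490 nm; IC50 normalised to 500 nM reference standard (100%) and DMSO (0%).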

T1 sequence (P14902 whole entry): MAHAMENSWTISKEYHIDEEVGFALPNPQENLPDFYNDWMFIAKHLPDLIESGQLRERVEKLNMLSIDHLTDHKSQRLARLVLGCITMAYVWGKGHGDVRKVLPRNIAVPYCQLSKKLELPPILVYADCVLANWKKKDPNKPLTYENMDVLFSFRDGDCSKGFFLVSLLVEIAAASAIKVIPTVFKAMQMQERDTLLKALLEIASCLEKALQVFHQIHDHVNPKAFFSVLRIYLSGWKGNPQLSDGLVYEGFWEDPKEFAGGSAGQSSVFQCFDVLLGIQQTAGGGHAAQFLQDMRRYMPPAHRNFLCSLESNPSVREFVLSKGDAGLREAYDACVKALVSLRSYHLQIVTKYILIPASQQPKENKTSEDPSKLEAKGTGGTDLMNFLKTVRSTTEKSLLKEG

Row | Structure (SMILES) | IC50
1 | CC(C)CN(c1ccc(OCC(=O)O)cc1N(C)C(=O)Nc1ccc(Cl)cc1F)C1CCCCC1 [Example 45] | ≥ 100 nM
2 | CC(C)CN(c1ccc(OCC(=O)O)cc1NC(=O)Nc1ccc(Cl)cc1F)C1CCOCC1 [Example 151, 2-(3-(3-(4-chloro-2-fluorophenyl)ureido)-4-(isobutyl(tetrahydro-2H-pyran-4-yl)amino)phenoxy)acetic acid] | ≥ 100 nM
3 | CC(C)CN(c1ccc(OCC(=O)O)cc1NC(=O)Nc1cc(F)cc(Cl)c1)C1CCCCC1 [Example 37, 2-(3-(3-(3-chloro-5-fluorophenyl)ureido)-4-(cyclo-hexyl(isobutyl)amino)phenoxy) acetic acid] | ≥ 100 nM
4 | CC(C)CN(c1ccc(OC(C)(C)C(=O)O)cc1NC(=O)Nc1ccc(Cl)cc1F)C1CCCCC1 [Example 91, 2-(3-(3-(4-chloro-2-fluorophenyl)ureido)-4-(cyclohexyl(isobutyl)amino)phenoxy)-2-methylpropanoic acid] | < 5 nM
5 | CC(C)CN(c1ccc(OCC(=O)O)cc1NC(=O)N1CCc2ccccc21)C1CCCCC1 [Example 16, 2-(4-(cyclohexyl(isobutyl)amino)-3-(indoline-1-carboxamido)phenoxy)acetic acid] | ≥ 100 nM
6 | Cc1ccc(NC(=O)Nc2cc(OCC(=O)O)ccc2N(CC2CC2)C2CCCCC2)cc1 [Example 131, 2-(4-(cyclohexyl(cyclopropylmethyl)amino)-3-(3-(p-tolyl)ureido)phenoxy)acetic acid] | ≥ 100 nM
7 | CC(C)CN(c1ccc(OCC(=O)Nc2ncco2)cc1NC(=O)Nc1ccc(Cl)cc1F)C1CCCCC1 [Example 154, 2-(3-(3-(4-chloro-2-fluorophenyl)ureido)-4-(cyclohexyl(isobutyl)amino)phenoxy)-N-(oxazol-2-yl)acetamide] | < 5 nM
8 | Cc1ccc(NC(=O)Nc2cc(OCC(=O)O)ccc2N(CC(C)C)C2CCCCC2)cc1 [Example 109, 2-(4-(cyclohexyl(isobutyl)amino)-3-(3-(p-tolyl)ureido)phenoxy)acetic acid] | < 100 nM
9 | CC(C)CN(c1cc(F)c(OCC(=O)O)cc1NC(=O)Nc1ccccc1Cl)C1CCCCC1 [Example 123, 2-(5-(3-(2-chlorophenyl)ureido)-4-(cyclohexyl(isobutyl)amino)-2-fluorophenoxy)acetic acid] | ≥ 100 nM
10 | CC(C)CN(c1ccc(OCC(=O)O)cc1NC(=O)Cc1ccc(Cl)c(F)c1)C1CCCCC1 [Example 54, 2-(3-(2-(4-chloro-3-fluorophenyl)acetamido)-4-(cyclohexyl(isobutyl)amino)phenoxy)acetic acid] | ≥ 100 nM
11 | Cc1cc(NC(=O)Nc2cc(OCC(=O)O)ccc2N(CC(C)C)C2CCCCC2)no1 [Example 7, 2-(4-(cyclohexyl(isobutyl)amino)-3-(3-(5-methylisoxazol-3-yl)ureido)phenoxy)acetic acid] | ≥ 100 nM
12 | Cc1cc(F)ccc1NC(=O)Nc1cc(OCC(=O)O)ccc1N(CC(C)C)C1CCCCC1 [Example 38, 2-(4-(cyclohexyl(isobutyl)amino)-3-(3-(4-fluoro-2-methylphenyl)ureido)phenoxy) acetic acid] | ≥ 100 nM
13 | Cc1ccc(NC(=O)Nc2cc(OC3(C(=O)O)CC3)ccc2N(CC(C)C)C2CCCCC2)cc1 [Example 94, 1-(4-(cyclohexyl(isobutyl)amino)-3-(3-(p-tolyl)ureido)phenoxy)cyclopropanecarboxylic acid] | < 5 nM
14 | Cc1c(F)cccc1NC(=O)Nc1cc(OCC(=O)O)ccc1N(CC(C)C)C1CCCCC1 [Example 28, 2-(4-(cyclohexyl(isobutyl)amino)-3-(3-(3-fluoro-2-methylphenyl)ureido)phenoxy)acetic acid] | ≥ 100 nM
15 | Cc1cnc(NC(=O)COc2ccc(N(CC(C)C)C3CCCCC3)c(NC(=O)Nc3ccc(Cl)cc3F)c2)s1 [Example 111, 2-(3-(3-(4-chloro-2-fluorophenyl)ureido)-4-(cyclohexyl(isobutyl)amino)phenoxy)-N-(5-methylthiazol-2-yl)acetamide] | ≥ 100 nM
16 | CC(C)CN(c1ccc(OCC(=O)O)cc1NC(=O)Nc1ccc(F)c(Cl)c1F)C1CCCCC1 [Example 24, 2-(3-(3-(3-chloro-2,4-difluorophenyl)ureido)-4-(cyclo-hexyl(isobutyl)amino)phenoxy) acetic acid] | ≥ 100 nM
17 | CC(C)CN(c1ccc(OCC(=O)NS(=O)(=O)C(C)(C)C)cc1NC(=O)Nc1ccc(Cl)cc1F)C1CCCCC1 [Example 48, N-(tert-butylsulfonyl)-2-(3-(3-(4-chloro-2-fluorophenyl)ureido)-4-(cyclohexyl(isobutyl)amino)phenoxy) acetamide] | < 5 nM
18 | CCCN(Cc1ccccc1)c1ccc(OCC(=O)O)cc1NC(=O)Nc1ccc(Cl)cc1F [Example 158, 2-(4-(benzyl(propyl)amino)-3-(3-(4-chloro-2-fluorophenyl)ureido)phenoxy)acetic acid] | < 100 nM
19 | Cc1ccc(NC(=O)Nc2cc(OCC(=O)O)ccc2N(CC(C)C)CC(C)C)cc1 [Example 112, 2-(4-(diisobutylamino)-3-(3-(p-tolyl)ureido)phenoxy)acetic acid] | ≥ 100 nM
20 | CCCN(Cc1ccccc1)c1ccc(OCC(=O)O)cc1NC(=O)Cc1ccc(Cl)cc1F [Example 165, 2-(4-(benzyl(propyl)amino)-3-(2-(4-chloro-2-fluorophenyl)acetamido)phenoxy)acetic acid] | ≥ 100 nM
21 | CC(C)CN(c1ccc(OCC(=O)O)cc1NC(=O)Nc1cccc(Cl)c1F)C1CCCCC1 [Example 26, 2-(3-(3-(3-chloro-2-fluorophenyl)ureido)-4-(cyclo-hexyl(isobutyl)amino)phenoxy) acetic acid] | ≥ 100 nM
22 | O=C(O)COc1ccc(N(CC2CC2)C2CCCCC2)c(NC(=O)Nc2cc(F)ccc2F)c1 [Example 130] | < 100 nM
23 | CC(C)CN(c1c(F)cc(OCC(=O)O)cc1NC(=O)Nc1ccc(Cl)cc1F)C1CCCCC1 [Example 104, 2-(3-(3-(4-chloro-2-fluorophenyl)ureido)-4-(cyclohexyl(isobutyl)amino)-5-fluorophenoxy)acetic acid] | < 5 nM
24 | CC(C)CN(c1c(F)cc(OCC(=O)O)cc1NC(=O)Nc1cc(F)ccc1F)C1CCCCC1 [Example 106, 2-(4-(cyclohexyl(isobutyl)amino)-3-(3-(2,5-difluorophenyl)ureido)-5-fluorophenoxy)acetic acid] | < 5 nM
25 | CC(C)CN(c1ncc(OCC(=O)O)cc1NC(=O)Nc1ccc(Cl)cc1F)C1CCCCC1 [Example 102, 2-((5-(3-(4-chloro-2-fluorophenyl)ureido)-6-(cyclohexyl(isobutyl)amino)pyridin-3-yl)oxy)acetic acid] | < 5 nM
26 | CC(Oc1ccc(N(CCC(F)(F)F)C2CCOCC2)c(NC(=O)Nc2ccc(Cl)cc2F)c1)C(=O)O (centres unmarked) [Example 148, 2-(3-(3-(4-chloro-2-fluorophenyl)ureido)-4-((tetrahydro-2H-pyran-4-yl)(3,3,3-trifluoropropyl)amino)phenoxy)propanoic acid] | ≥ 100 nM

Further lines, results first:

Row | IC50 | Structure (SMILES)
27 | < 5 nM | C=C(C)CN(c1ccc(OC(C)C(=O)O)cc1NC(=O)Nc1ccc(Cl)cc1F)C1CCOCC1 (single isomer, unassigned) [Example 139-2, 2-(3-(3-(4-chloro-2-fluorophenyl)ureido)-4-((2-methylallyl)(tetrahydro-2H-pyran-4-yl)amino)phenoxy)propanoic acid]
28 | < 5 nM | Cc1ccc(NC(=O)Nc2cc(OC(C)C(=O)O)ccc2N(CC(C)C)C2CCCCC2)c(F)c1 (single isomer, unassigned) [Example 65-2, 2-(4-(cyclohexyl(isobutyl)amino)-3-(3-(2-fluoro-4-methylphenyl)ureido)phenoxy)propanoic acid]
29 | < 5 nM | CC(C)CN(c1ccc(OC(C)C(=O)O)cc1NC(=O)Nc1ccc(C#N)cc1)C1CCCCC1 (single isomer, unassigned) [Example 66-2, 2-(3-(3-(4-cyanophenyl)ureido)-4-(cyclohexyl(isobutyl)amino)phenoxy)propanoic acid]
30 | < 5 nM | CCC(Oc1ccc(N(CC(C)C)C2CCCCC2)c(NC(=O)Nc2ccc(C)cc2)c1)C(=O)O (single isomer, unassigned) [Example 82-1, 2-(4-(cyclohexyl(isobutyl)amino)-3-(3-(p-tolyl)ureido)phenoxy)butanoic acid]
31 | < 5 nM | CCOC(=O)C(C)Oc1ccc(N(CC(C)C)C2CCCCC2)c(NC(=O)Nc2ccc(Cl)cc2F)c1 (single isomer, unassigned) [Example 67-2, ethyl 2-(3-(3-(4-chloro-2-fluorophenyl)ureido)-4-(cyclohexyl(isobutyl)amino)phenoxy)propanoate]
32 | ≥ 100 nM | COCC(Oc1ccc(N(CC(C)C)C2CCCCC2)c(NC(=O)Nc2ccc(C)cc2)c1)C(=O)O (single isomer, unassigned) [Example 90-1, 2-(4-(cyclohexyl(isobutyl)amino)-3-(3-(p-tolyl)ureido)phenoxy)-3-methoxypropanoic acid]
33 | < 5 nM | CC(C)CN(c1cc(F)c(OC(C)C(=O)O)cc1NC(=O)Nc1ccc(Cl)cc1F)C1CCCCC1 (single isomer, unassigned) [Example 136-1, 2-(5-(3-(4-chloro-2-fluorophenyl)ureido)-4-(cyclohexyl(isobutyl)amino)-2-fluorophenoxy)propanoic acid.TFA]
34 | < 5 nM | CCC(Oc1ccc(N(CC(C)C)C2CCCCC2)c(NC(=O)Nc2ccccc2F)c1)C(=O)O (single isomer, unassigned) [Example 81-1, 2-(4-(cyclohexyl(isobutyl)amino)-3-(3-(2-fluorophenyl)ureido)phenoxy)butanoic acid]
35 | < 100 nM | CC(C)CN(c1ccc(OC(C)C(=O)O)cc1NC(=O)Nc1ccc(Cl)cc1F)C1CCOC1 (single isomer, unassigned) [Example 146-2, 2-(3-(3-(4-chloro-2-fluorophenyl)ureido)-4-(isobutyl(tetrahydrofuran-3-yl)amino)phenoxy)propanoic acid]
